According to article PMC7501296, “Rapid and direct control of target protein levels with VHL-recruiting dTAG molecules” (Nature Communications, 2020):
Where “and” joins values, the source holds several entries; their conditions need not be identical. Equal entries are not always repeated.

Test system: EWS502 FKBP12^F36V-EWS/FLI; EWS/FLI^−/− cells
Experiment: Quantitative MS proteomics, EWS502 FKBP12F36V-EWS/FLI; EWS/FLI-/- cells
Format: cell-based, Homo sapiens
Settings: for TMT intensity per TMT channel: biological replicates
Method: Cell pellets from PATU-8902 and EWS502 cells were lysed using 8 M urea, 200 mM 4-(2-hydroxyethyl)-1-piperazinepropanesulfonic acid (EPPS) at pH 8.5 with protease inhibitors. Samples were further homogenized and DNA was sheered via sonication using a probe sonicator (20 × 0.5 s pulses; level 3). Total protein was determined using a BCA assay and stored at −80 °C until future use. A total of 100 µg of protein was aliquoted for each condition and TMT channel for further downstream processing. Protein extracts were reduced using 10 mM dithiothreitol (DTT) for 30 min at room temperature. Next, samples were alkylated with 20 mM iodoacetamide for 45 min in the dark at room temperature. To facilitate the removal of incompatible reagents, proteins were precipitated using chloroform methanol. Briefly, to 100 µL of each sample, 400 µL of methanol was added, followed by 100 µL of chloroform with thorough vortexing. Next, 300 µL of HPLC grade water was added and samples were vortexed thoroughly. Each sample was centrifuged at 14,000 × g for 5 min at room temperature. The upper aqueous layer was removed and the protein pellet was washed twice with methanol and centrifuged at 14,000 × g for 5 min at room temperature. Protein pellets were resolubilized in 200 mM EPPS buffer and digested overnight with Lys-C (1:100, enzyme:protein ratio) at room temperature. The next day, trypsin (1:100 ratio) was added and incubated at 37 °C for an additional 6 h in a ThermoMixer set to 1000 RPM.
To each digested sample, 30% anhydrous acetonitrile was added and 100 µg of peptides were labeled using 200 µg of TMT reagent (TMT1-TMT11). Following labeling, a 5% hydroxylamine solution was used to quench excess TMT reagent. To equalize protein loading, a ratio check was performed by pooling 2 µg of each TMT-labeled sample. Samples were pooled and desalted using in-house packed C18 StageTips and analyzed by LC-MS/MS. Normalization factors were calculated from this label check, samples were mixed 1:1 across all TMT channels and desalted using a 100 mg Sep-Pak solid phase extraction cartridge. Eluted pooled peptides were further fractionated with basic-pH reverse-phase (bRP) HPLC using an Agilent 300 extend C18 column and collected into a 96 deep-well plate. Samples were consolidated into 24 fractions, and 12 nonadjacent fraction were desalted using StageTips prior to analyses using LC-MS/MS[35]–[37].
All mass spectrometry data was acquired using an Orbitrap Fusion mass spectrometer in-line with a Proxeon NanoLC-1000 UHPLC system. Peptides were separated using an in-house 100 µm capillary column packed with 40 cm of Accucore 150 resin (2.6 µm, 150 Å) (Thermo Fisher Scientific) using a 180 min LC gradient per fraction. Eluted peptides were acquired using synchronous precursor selection (SPS-MS3) method for TMT quantification. Briefly, MS1 spectra were acquired at 120 K resolving power with a maximum of 50 ms in the Orbitrap. MS2 spectra were acquired by selecting the top ten most abundant features via collisional induced dissociation (CID) in the ion trap using an automatic gain control (AGC) of 15 K, quadrupole isolation width of 0.7 m/z and a maximum ion time of 100 ms. For MS3 acquisition, a synchronous precursor selection of ten fragment ions was acquired with an AGC of 150 K for 150 ms and a normalized collision energy of 55.
All acquired raw data were converted to mzXML using Raw File Reader (v3.0.77). Spectra were processed using Comet (2019.01.5)[39]–[41], search results were filtered using the LDA function MASS Package in R, and data were processed using an in-house informatics pipeline[42]–[44]. Custom code was not developed in this study. Briefly, peptide spectral libraries were first filtered to a peptide false discovery rate (FDR) of less than 1% using linear discriminant analysis employing a target decoy strategy. […]

CC[C@H](C(=O)N1CCCC[C@H]1C(=O)O[C@H](CCc1ccc(OC)c(OC)c1)c1ccccc1OCC(=O)NCCCCCCC(=O)N[C@H](C(=O)N1C[C@H](O)C[C@H]1C(=O)N[C@@H](C)c1ccc(-c2scnc2C)cc1)C(C)(C)C)c1cc(OC)c(OC)c(OC)c1 [dTAG^V-1]
Downstream EWS/FLI targets such as NKX2-2 (1 μM): decrease | FKBP12F36V-EWS/FLI abundance, proteomics (1 μM, 6 h): pronounced loss | TMT intensity per TMT channel (protein ALX1, 2 h): 329.39 and 330.899 and 363.825 | TMT intensity per TMT channel (protein ALX1, 6 h): 447.307 and 474.897 and 456.686 | TMT intensity per TMT channel (protein ALX1, 24 h): 404.298 and 454.379 and 455.33 | TMT intensity per TMT channel (protein ALX4, 2 h): 469.052 and 457.885 and 499.883 | TMT intensity per TMT channel (protein ALX4, 6 h): 458.233 and 484.524 and 491.274 | TMT intensity per TMT channel (protein ALX4, 24 h): 439.297 and 450.367 and 443.433 | Fold change > 2 (protein HMGCR, 1 μM, 6 h): + (Fold change in which '+' refers to fold change > 2.) | log2 (Fold change) compared to DMSO (protein HMGCR, 1 μM, 6 h): 1.415 | TMT intensity per TMT channel (protein HOXD13, 2 h): 710.117 and 733.089 and 700.291 | TMT intensity per TMT channel (protein HOXD13, 6 h): 834.508 and 881.589 and 912.211 | TMT intensity per TMT channel (protein HOXD13, 24 h): 931.777 and 1032.27 and 996.28 | log2 (Fold change) compared to DMSO (protein NOB1, 1 μM, 6 h): 0.3965 | TMT intensity per TMT channel (protein PHOX2B, 2 h): 138.138 and 127.877 and 140.273 | TMT intensity per TMT channel (protein PHOX2B, 6 h): 146.64 and 175.628 and 155.142 | TMT intensity per TMT channel (protein PHOX2B, 24 h): 163.818 and 130.026 and 156.319 | log2 (Fold change) compared to DMSO (protein PRCP, 1 μM, 6 h): -0.5172 | TMT intensity per TMT channel (protein SLC12A2, 2 h): 2102.8 and 2152.89 and 2069.05 | TMT intensity per TMT channel (protein SLC12A2, 6 h): 2768.92 and 2608.81 and 2791.59 | TMT intensity per TMT channel (protein SLC12A2, 24 h): 2883.76 and 2924.13 and 2976.61 | log2 (Fold change) compared to DMSO (protein SQLE, 1 μM, 6 h): 0.8919 | log2 (Fold change) compared to DMSO (protein TMEM126A, 1 μM, 6 h): -0.3183
